Results taken from patent US20190117616A1, “METHOD FOR REGULATING KDM4A, KDM4B, AND KDM4C ACTIVITY” (National Tsing Hua University, priority 2017, published 2019).

What was measured:
KDM4B = target: T1, KDM4B (Homo sapiens, UniProt O94953); test: KDM4B enzymatic inhibition (residual activity, IC50, kinetics); format: biochemical; conditions: for Inhibitory effects of Myricetin analogues against KDM4B activity: Table 1 (not given), 100 μM compounds
T1 sequence (O94953 1-1096): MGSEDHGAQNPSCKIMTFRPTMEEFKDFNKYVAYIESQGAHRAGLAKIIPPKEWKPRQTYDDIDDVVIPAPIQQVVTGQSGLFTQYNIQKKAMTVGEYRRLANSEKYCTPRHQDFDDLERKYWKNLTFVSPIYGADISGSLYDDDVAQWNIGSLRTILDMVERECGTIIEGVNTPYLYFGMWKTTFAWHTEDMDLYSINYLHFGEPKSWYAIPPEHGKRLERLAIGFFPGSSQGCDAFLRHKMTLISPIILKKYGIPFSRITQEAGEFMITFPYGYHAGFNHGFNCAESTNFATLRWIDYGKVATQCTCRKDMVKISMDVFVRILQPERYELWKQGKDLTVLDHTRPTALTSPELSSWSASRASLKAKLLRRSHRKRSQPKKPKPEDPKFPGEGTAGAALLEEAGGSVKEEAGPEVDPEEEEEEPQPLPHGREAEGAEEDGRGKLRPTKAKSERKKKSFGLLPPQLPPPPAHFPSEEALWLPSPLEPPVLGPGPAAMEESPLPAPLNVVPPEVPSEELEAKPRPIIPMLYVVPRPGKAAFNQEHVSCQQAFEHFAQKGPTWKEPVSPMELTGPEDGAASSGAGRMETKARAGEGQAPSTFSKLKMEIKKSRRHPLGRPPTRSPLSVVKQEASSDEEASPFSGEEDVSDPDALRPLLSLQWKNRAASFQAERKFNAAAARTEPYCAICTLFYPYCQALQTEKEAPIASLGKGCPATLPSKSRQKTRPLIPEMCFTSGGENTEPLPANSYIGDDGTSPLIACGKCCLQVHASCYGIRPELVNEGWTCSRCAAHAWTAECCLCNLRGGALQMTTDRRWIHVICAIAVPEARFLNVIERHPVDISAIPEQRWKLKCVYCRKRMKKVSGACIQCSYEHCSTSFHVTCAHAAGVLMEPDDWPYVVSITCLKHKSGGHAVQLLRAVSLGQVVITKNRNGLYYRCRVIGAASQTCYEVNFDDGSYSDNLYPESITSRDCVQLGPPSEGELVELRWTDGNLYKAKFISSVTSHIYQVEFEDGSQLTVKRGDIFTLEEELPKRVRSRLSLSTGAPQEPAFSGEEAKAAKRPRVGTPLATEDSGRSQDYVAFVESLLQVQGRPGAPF

C4-2B xenografts [1] = test: Ki-67 and CD31 immunohistochemistry of xenograft tumor sections; format: in vivo, nude mice; conditions: FIG. 7B
Method: FIG. 7B: Ki-67 and CD31 immunohistochemistry staining of the tumor sections isolated from the xenografts.
The endothelial cell-specific marker CD31 in xenografts was also determined.

C4-2B xenografts [2] = test: C4-2B xenograft tumor growth in nude mice; format: in vivo; conditions: C4-2B xenograft model
KDM4C [3] = target: T2, KDM4C (Homo sapiens, UniProt Q9H3R0); test: H3 demethylation by bacteria-expressed KDM4C, western blot; format: biochemical; conditions: 100 μM inhibitor, 10 μM enzyme, 5 μM H3, 37° C., 30 min
T2 sequence (Q9H3R0 1-1056): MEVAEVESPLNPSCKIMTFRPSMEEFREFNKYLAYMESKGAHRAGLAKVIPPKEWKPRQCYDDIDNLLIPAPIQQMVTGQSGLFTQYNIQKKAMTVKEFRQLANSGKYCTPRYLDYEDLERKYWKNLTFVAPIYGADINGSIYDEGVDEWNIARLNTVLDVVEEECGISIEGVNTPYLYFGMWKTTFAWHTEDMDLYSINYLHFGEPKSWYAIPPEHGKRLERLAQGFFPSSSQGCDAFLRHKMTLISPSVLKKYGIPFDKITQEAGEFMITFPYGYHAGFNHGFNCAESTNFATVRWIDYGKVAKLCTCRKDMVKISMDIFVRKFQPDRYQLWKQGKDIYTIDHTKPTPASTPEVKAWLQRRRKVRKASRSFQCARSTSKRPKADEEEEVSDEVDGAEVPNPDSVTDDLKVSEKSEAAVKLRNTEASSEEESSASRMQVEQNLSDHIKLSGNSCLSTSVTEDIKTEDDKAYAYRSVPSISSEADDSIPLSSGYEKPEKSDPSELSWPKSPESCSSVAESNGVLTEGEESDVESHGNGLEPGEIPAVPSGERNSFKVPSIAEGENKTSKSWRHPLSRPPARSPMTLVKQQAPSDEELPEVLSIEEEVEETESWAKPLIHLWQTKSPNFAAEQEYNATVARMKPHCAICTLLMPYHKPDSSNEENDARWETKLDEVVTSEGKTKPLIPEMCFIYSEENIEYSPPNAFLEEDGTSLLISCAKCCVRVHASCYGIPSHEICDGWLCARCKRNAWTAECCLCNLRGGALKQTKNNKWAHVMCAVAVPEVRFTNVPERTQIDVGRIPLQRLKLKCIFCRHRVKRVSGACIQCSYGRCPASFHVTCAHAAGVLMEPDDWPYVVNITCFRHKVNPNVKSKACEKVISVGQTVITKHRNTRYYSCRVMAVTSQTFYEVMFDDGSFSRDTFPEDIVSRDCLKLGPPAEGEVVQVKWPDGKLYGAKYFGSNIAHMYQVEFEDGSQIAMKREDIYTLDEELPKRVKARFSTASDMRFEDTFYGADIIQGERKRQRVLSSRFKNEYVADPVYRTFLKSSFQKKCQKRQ

C4-2B cells [4] = test: Cell viability of C4-2B, PLGA-Myricetin versus free Myricetin; conditions: read-out: IC50, cell viability (cytotoxicity) of C4-2B cells
KDM4C [5] = target: T2, KDM4C; conditions: toward α-ketoglutarate, FIG. 2A
LNCaP cells = test: MTT cell growth assay, LNCaP; format: cell-based; conditions: different concentrations over 4 days
Excerpt: (§1) Whether Myricetin blocked cell growth of AR+ cells was next evaluated.

C4-2B cells [6] = test: MTT cell proliferation assay, C4-2B; format: cell-based; conditions: different concentrations over 4 days
Excerpt: as §1

C4-2B cells [7] = system: C4-2B cells
[8] = system: H3K9me3/H3K36me3 in C4-2B cells; test: H3K9me3 and H3K36me3 levels in treated C4-2B cells, western blot; format: cell-based; conditions: treated for two days, cell lysates
Excerpt: FIG. 5B: H3K9me3 and H3K36me3 levels in Myricetin-treated C4-2B cells for two days. The H3K9me3 and H3K36me3 signals are detected in cell lysates by western blot analysis.
as §1

PZ-HPV-7 cells = test: MTT assay, immortalized normal PZ-HPV-7; format: cell-based; conditions: different concentrations over 4 days
Excerpt: as §1

JMJD2E/KDM4E = target: T3, JMJD2E/KDM4E (Homo sapiens, UniProt B2RXH2); conditions: in vitro, literature; cited from earlier work
T3 sequence (B2RXH2 1-506): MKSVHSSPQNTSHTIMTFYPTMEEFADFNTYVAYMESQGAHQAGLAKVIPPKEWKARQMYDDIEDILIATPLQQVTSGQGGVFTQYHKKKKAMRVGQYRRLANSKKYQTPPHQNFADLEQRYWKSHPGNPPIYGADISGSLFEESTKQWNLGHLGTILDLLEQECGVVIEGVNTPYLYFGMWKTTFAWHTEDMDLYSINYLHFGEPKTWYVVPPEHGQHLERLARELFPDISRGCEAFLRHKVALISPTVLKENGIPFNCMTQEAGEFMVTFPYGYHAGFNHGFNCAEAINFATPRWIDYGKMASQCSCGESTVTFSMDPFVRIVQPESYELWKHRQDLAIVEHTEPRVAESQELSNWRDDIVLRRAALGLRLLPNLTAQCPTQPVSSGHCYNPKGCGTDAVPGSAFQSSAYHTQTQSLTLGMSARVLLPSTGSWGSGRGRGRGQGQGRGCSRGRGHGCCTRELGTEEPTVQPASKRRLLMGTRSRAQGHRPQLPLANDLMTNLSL

herpes virus = conditions: literature; cited from earlier work
[9] = literature; cited from earlier work

O=c1c(O)c(-c2ccc(O)c(O)c2)oc2cc(O)cc(O)c12 [Quercetin]
Inhibitory effects of Myricetin analogues against KDM4B activity (KDM4B): significant inhibitory effects

O=c1c(O)c(-c2ccc(O)cc2)oc2cc(O)cc(O)c12 [Kaempferol]
Inhibitory effects of Myricetin analogues against KDM4B activity (KDM4B): significant inhibitory effects

O=c1c(O)c(-c2ccc(O)c(O)c2)oc2c(O[C@@H]3O[C@H](CO)[C@@H](O)[C@H](O)[C@H]3O)c(O)cc(O)c12 [Gossypin]
Inhibitory effects of Myricetin analogues against KDM4B activity (KDM4B): significant inhibitory effects

CNC(=O)c1ccc(N2C(=S)N(c3ccc(C#N)c(C(F)(F)F)c3)C(=O)C2(C)C)cc1F [enzalutamide]
Endothelial cell-specific marker CD31 in xenografts (C4-2B xenografts [1]): significantly higher level of CD31 was seen in the vehicle group
Expression of proliferation marker Ki-67 in xenografts (C4-2B xenografts [1]): significantly lower expression
Antitumor activity compared with the vehicle control group (C4-2B xenografts [2]): significant antitumor activity

O=c1c(O)c(-c2cc(O)c(O)c(O)c2)oc2cc(O)cc(O)c12 [Myricetin]
Demethylation of H3K9me3 by KDM4C (KDM4C [3]): significantly reduced such an activity
IC50 (C4-2B cells [4]): 38.3 µM
Enzymatic inhibitory kinetics, mode (KDM4C) (KDM4C [5]): competitive mode
Cell growth of LNCaP (LNCaP cells): significantly reduced level of cell growth
IC50 (KDM4B): 1.3 µM
Enzymatic inhibitory kinetics, mode (KDM4B) (KDM4B; toward α-ketoglutarate, FIG. 2A): competitive inhibition mode
Cell proliferation of C4-2B (C4-2B cells [6]): blocked
Cytotoxic effect alone, compared with enzalutamide alone (C4-2B cells [7]): better cytotoxic effect
H3K9me3 level in C4-2B cells [8]: dose-dependent increased level
H3K36me3 signal in C4-2B cells [8]: relatively comparable signal
Antitumor activity compared with the vehicle control group (C4-2B xenografts [2]): significant antitumor activity
Effect on immortalized normal PZ-HPV-7 line (PZ-HPV-7 cells): essentially no effect

CN(C)CCCNC(=O)c1ccc(-c2cc(O)c3ncccc3c2)cc1 [ML324]
Inhibitory activity toward JMJD2E/KDM4E (JMJD2E/KDM4E): submicromolar
KDM4A-dependent herpes virus-mediated replication in infected cells (herpes virus): blocked
Cell permeability [9]: good
In vitro ADME properties [9]: good

COc1cc(-c2oc3cc(O)cc(O)c3c(=O)c2O)ccc1O [Isorhamnetin]
Inhibitory effects of Myricetin analogues against KDM4B activity (KDM4B): significant inhibitory effects
